Results reported in ChEMBL document CHEMBL1201862, “PubChem BioAssay data set” (2004).
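Compound exposure: 48 hours, 5 concentrations, 96-well plates. Here, GI50 denotes the concentration required for 50% inhibition of growth.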 Calls of active or inactive are those of the source. No stated cut-off is given here; in the data, active = GI50 up to about 1.1 µM and inactive = higher.

Experiments:
Test in all cases: NCI-60 cell line screen, 48 h
ACHN = test system: ACHN
CAKI-1 = test system: CAKI-1
HCT-116 = test system: HCT-116
HL-60 = test system: HL-60
HOP-62 = test system: HOP-62
HT-29 = test system: HT-29
IGROV-1 = test system: IGROV-1
K562 = test system: K562
M14 = test system: M14
MDA-MB-435 = test system: MDA-MB-435
MOLT-4 = test system: MOLT-4
NCI-H23 = test system: NCI-H23
OVCAR-4 = test system: OVCAR-4
RPMI-8226 = test system: RPMI-8226
RXF 393 = test system: RXF 393
SF-268 = test system: SF-268
SF-295 = test system: SF-295
SK-MEL-5 = test system: SK-MEL-5
SK-OV-3 = test system: SK-OV-3
UACC-257 = test system: UACC-257

Measured: GI50

COC(=O)c1c2c(cc3c1CC1(Cc4cc5c(cc4C1)CCC5)C3)CCC2
inactive: ACHN > 100 µM | CAKI-1 > 100 µM | HCT-116 > 100 µM | HL-60 > 100 µM | HOP-62 > 100 µM | HT-29 > 100 µM | IGROV-1 > 100 µM | K562 > 100 µM | M14 > 100 µM | MDA-MB-435 77.4 µM | MOLT-4 > 100 µM | NCI-H23 > 100 µM | OVCAR-4 > 100 µM | RPMI-8226 > 100 µM | RXF 393 > 100 µM | SF-268 > 100 µM | SF-295 > 100 µM | SK-MEL-5 > 100 µM | SK-OV-3 > 100 µM | UACC-257 > 100 µM

CC(C)N1CN(c2ccccc2)C2(CCN(CCCC(=O)c3ccc(F)cc3)CC2)C1=O
inactive: ACHN 3.9 µM | CAKI-1 4.13 µM | HCT-116 2.04 µM | HL-60 19.1 µM | HOP-62 3.7 µM | HT-29 1.79 µM | IGROV-1 3.85 µM | K562 25.6 µM | M14 15.3 µM | MDA-MB-435 11.1 µM | MOLT-4 5.92 µM | NCI-H23 6.7 µM | OVCAR-4 3.26 µM | RPMI-8226 10.3 µM | RXF 393 28.4 µM | SF-268 6.7 µM | SF-295 10.8 µM | SK-MEL-5 2.55 µM | SK-OV-3 42 µM | UACC-257 2.74 µM

O=C(O)Cc1cccc2c(=O)c3cccc([N+](=O)[O-])c3oc12
inactive: ACHN > 100 µM | CAKI-1 > 100 µM | HCT-116 > 100 µM | HL-60 > 100 µM | HOP-62 > 100 µM | HT-29 > 100 µM | IGROV-1 > 100 µM | K562 > 100 µM | M14 > 100 µM | MDA-MB-435 > 100 µM | MOLT-4 > 100 µM | NCI-H23 > 100 µM | OVCAR-4 > 100 µM | RPMI-8226 > 100 µM | RXF 393 > 100 µM | SF-268 > 100 µM | SF-295 > 100 µM | SK-MEL-5 > 100 µM | SK-OV-3 > 100 µM | UACC-257 > 100 µM
